Among the test systems are UO-31 renal; HCT-116 colon; M14 melanoma; CCRF-CEM leukemia; IGROV1 ovarian; HCC-2998 colon; SK-MEL-5 melanoma; HS 578T breast; SN12C renal; SK-MEL-2 melanoma.
What all share (assay): NCI anticancer screen, dose series, 48 h

Eight molecules from PubChem BioAssay (NCI) can be followed below.

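Method: 48-hour compound exposure of cells in 96-well plates, five concentrations, linear interpolation of endpoints. GI50 marks 50% less growth. TGI marks complete inhibition of growth.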 Bounds are passed on as bounds.

Regarding `N#Cc1cccc(OCc2nc(N)nc(N)c2-c2ccc(Cl)c(Cl)c2)c1`, the GI50 in the test on UO-31 renal was 3.23 µM; with HCT-116 colon it was 0.472 µM; with M14 melanoma, 0.639 µM; in the test on CCRF-CEM leukemia it was 2.03 µM; in the test on IGROV1 ovarian, 1.46 µM; in the test on HCC-2998 colon, 4.11 µM. For the same molecule, the GI50 was 1.29 µM in the test with SK-MEL-5 melanoma, 4.41 µM in the test with HS 578T breast, 2.23 µM in the test with SN12C renal and 6.68 µM in the test on SK-MEL-2 melanoma. Further, the TGI in the test on UO-31 renal, with HCT-116 colon, in the test on M14 melanoma, in the test with CCRF-CEM leukemia, in the test with IGROV1 ovarian and with HCC-2998 colon was over 100 µM throughout. Further, the TGI in the test with SK-MEL-5 melanoma, in the test with HS 578T breast, with SN12C renal and with SK-MEL-2 melanoma was over 100 µM in each case.

Take `CCCCCc1nc2c(c3c1CCCC3)CCCC2`: the GI50 with UO-31 renal was 2.19 µM; in the test with HCT-116 colon it was 3.01 µM; in the test with M14 melanoma, 12.9 µM; with CCRF-CEM leukemia it was 11.1 µM; in the test with IGROV1 ovarian, 5.73 µM; in the test on HCC-2998 colon, 10.2 µM. In addition, the GI50 in the test on SK-MEL-5 melanoma is 6.19 µM; in the test on HS 578T breast it was 14 µM; in the test on SN12C renal it was 12.3 µM; with SK-MEL-2 melanoma it was 12.7 µM. Moreover, the TGI with UO-31 renal came to 13.9 µM; in the test on HCT-116 colon it was 15.2 µM; with M14 melanoma, 29.4 µM; in the test on CCRF-CEM leukemia it was 43.2 µM; in the test with IGROV1 ovarian, 26.2 µM; in the test on HCC-2998 colon it was 29.5 µM. The TGI in the test on SK-MEL-5 melanoma amounted to 18.8 µM; in the test on HS 578T breast, 69.3 µM; in the test with SN12C renal, 34.2 µM; in the test with SK-MEL-2 melanoma, 27.4 µM.

On to `COc1ccc2c(c1)=C(C=C1C=CN(O)C=C1)C(=O)N=2`, for which the GI50 is 19.8 µM in the test on UO-31 renal; 28.9 µM in the test on HCT-116 colon; 24.6 µM in the test with M14 melanoma; 25.3 µM in the test with CCRF-CEM leukemia; 16.2 µM in the test with IGROV1 ovarian; 21.8 µM with HCC-2998 colon. Besides, the GI50 is 22.8 µM with SK-MEL-5 melanoma, 32.1 µM in the test with HS 578T breast, 22.1 µM in the test with SN12C renal and 26.7 µM with SK-MEL-2 melanoma. Moreover, the TGI is over 92.6 µM in the test with UO-31 renal; over 100 µM in the test with HCT-116 colon; 65.9 µM in the test with M14 melanoma; over 79.1 µM in the test with CCRF-CEM leukemia; over 94.4 µM with IGROV1 ovarian; 47 µM in the test on HCC-2998 colon. Further, the TGI is 63.9 µM in the test with SK-MEL-5 melanoma, over 86.3 µM with HS 578T breast, 59.2 µM in the test with SN12C renal and 73.7 µM with SK-MEL-2 melanoma.

Turning to `Cc1cc(Cl)cc2c(N=Nc3ccccc3[N+](=O)[O-])c(O)[nH]c12`, the TGI with UO-31 renal, in the test with HCT-116 colon, in the test on M14 melanoma, in the test with CCRF-CEM leukemia, in the test with IGROV1 ovarian and with HCC-2998 colon was over 100 µM in each case. Besides, the TGI with SK-MEL-5 melanoma, in the test with HS 578T breast, with SN12C renal and in the test on SK-MEL-2 melanoma was over 100 µM in each case.

`Oc1ccc(CN2CCC(N3CCOCC3)CC2)c2cccnc12`: the GI50 is 14.7 µM with UO-31 renal; 34.4 µM in the test with HCT-116 colon; 26.9 µM with M14 melanoma; 23.8 µM in the test with CCRF-CEM leukemia; 30.9 µM in the test with IGROV1 ovarian; 51.7 µM in the test on HCC-2998 colon. Also, the GI50 in the test on SK-MEL-5 melanoma is 23.2 µM; in the test with HS 578T breast it was 62.1 µM; in the test on SN12C renal, 47.5 µM; in the test on SK-MEL-2 melanoma, 52.8 µM. The TGI is 63.8 µM with UO-31 renal; over 100 µM in the test with HCT-116 colon; over 100 µM with M14 melanoma; over 100 µM in the test with CCRF-CEM leukemia; over 100 µM in the test on IGROV1 ovarian; over 100 µM in the test on HCC-2998 colon. Also, the TGI was 57 µM in the test on SK-MEL-5 melanoma, over 100 µM with HS 578T breast, over 100 µM in the test on SN12C renal and over 100 µM in the test with SK-MEL-2 melanoma.

Turning to `C=C(C)C1Cc2c(cc(OC)c3c(=O)c4cccc(O)c4oc23)O1` (stereo not given), the TGI is 39 µM in the test on UO-31 renal; 39.4 µM in the test on HCT-116 colon; 50.8 µM with M14 melanoma; over 100 µM with CCRF-CEM leukemia; 33.1 µM in the test with IGROV1 ovarian; over 100 µM in the test on HCC-2998 colon. The TGI is 30.1 µM in the test with SK-MEL-5 melanoma, 49.3 µM in the test with HS 578T breast, 76.7 µM with SN12C renal and 42.4 µM in the test on SK-MEL-2 melanoma.

`CC/C(=C(/c1ccc(OCCN(C)C)cc1)c1ccc(OC(=O)CCC(=O)c2c(C)[nH]c(/C=C3\N=C(c4ccc[nH]4)C=C3OC)c2C)cc1)c1ccccc1`: the GI50 in the test on UO-31 renal is 1.71 µM; with HCT-116 colon, 0.792 µM; with M14 melanoma, 2.06 µM; in the test on CCRF-CEM leukemia it was 0.435 µM; in the test with IGROV1 ovarian, 3.65 µM; with HCC-2998 colon, 3.72 µM. Also, the GI50 was 1.31 µM in the test on SK-MEL-5 melanoma, 1.15 µM with HS 578T breast, 3.09 µM with SN12C renal and 2.42 µM in the test on SK-MEL-2 melanoma. The TGI worked out at 5.05 µM with UO-31 renal; 3.26 µM in the test with HCT-116 colon; 4.92 µM with M14 melanoma; 6.34 µM in the test on CCRF-CEM leukemia; 15.4 µM with IGROV1 ovarian; 13.4 µM in the test on HCC-2998 colon. Moreover, the TGI in the test on SK-MEL-5 melanoma came to 2.62 µM; with HS 578T breast, 4.72 µM; in the test with SN12C renal, 18.9 µM; in the test on SK-MEL-2 melanoma, 6.2 µM.

As for `CCN1/C(=C/C=C/c2n(-c3ccccc3)c3ccc(-c4nc5ccccc5s4)cc3[n+]2CC)N(c2ccccc2)c2ccc(-c3nc4ccccc4s3)cc21`, the GI50 in the test on UO-31 renal was 0.622 µM; with HCT-116 colon it was 0.436 µM; with M14 melanoma, 0.437 µM; in the test on CCRF-CEM leukemia, 2.69 µM; in the test with IGROV1 ovarian, 0.75 µM; in the test with HCC-2998 colon it was 1.69 µM. The GI50 in the test with SK-MEL-5 melanoma is 0.184 µM; in the test on HS 578T breast, 0.284 µM; in the test on SN12C renal it was 0.175 µM; with SK-MEL-2 melanoma, 0.89 µM. For the same molecule, the TGI in the test on UO-31 renal is 3.57 µM; in the test on HCT-116 colon it was over 50 µM; in the test on M14 melanoma, 4.62 µM; in the test with CCRF-CEM leukemia it was over 50 µM; in the test with IGROV1 ovarian it was over 50 µM; in the test on HCC-2998 colon it was over 31.1 µM. The TGI is 1.27 µM with SK-MEL-5 melanoma, over 50 µM with HS 578T breast, 2.44 µM with SN12C renal and 2.85 µM in the test on SK-MEL-2 melanoma.
